According to ChEMBL document CHEMBL2040771, “Discovery of a potent inhibitor of anaplastic lymphoma kinase with in vivo antitumor activity” (ACS Med Chem Lett, 2010):

Tests used:
Insulin receptor = Insulin receptor (Homo sapiens, UniProt P06213); assay: Inhibition of insulin receptor
[1] = Oral bioavailability in rat; format: ADME, organism-based; conditions: in vivo
[2] = target: ALK tyrosine kinase receptor (Homo sapiens, UniProt Q9UM73); assay: Inhibition of ALK
ALK tyrosine kinase receptor, sequence (Q9UM73 whole entry): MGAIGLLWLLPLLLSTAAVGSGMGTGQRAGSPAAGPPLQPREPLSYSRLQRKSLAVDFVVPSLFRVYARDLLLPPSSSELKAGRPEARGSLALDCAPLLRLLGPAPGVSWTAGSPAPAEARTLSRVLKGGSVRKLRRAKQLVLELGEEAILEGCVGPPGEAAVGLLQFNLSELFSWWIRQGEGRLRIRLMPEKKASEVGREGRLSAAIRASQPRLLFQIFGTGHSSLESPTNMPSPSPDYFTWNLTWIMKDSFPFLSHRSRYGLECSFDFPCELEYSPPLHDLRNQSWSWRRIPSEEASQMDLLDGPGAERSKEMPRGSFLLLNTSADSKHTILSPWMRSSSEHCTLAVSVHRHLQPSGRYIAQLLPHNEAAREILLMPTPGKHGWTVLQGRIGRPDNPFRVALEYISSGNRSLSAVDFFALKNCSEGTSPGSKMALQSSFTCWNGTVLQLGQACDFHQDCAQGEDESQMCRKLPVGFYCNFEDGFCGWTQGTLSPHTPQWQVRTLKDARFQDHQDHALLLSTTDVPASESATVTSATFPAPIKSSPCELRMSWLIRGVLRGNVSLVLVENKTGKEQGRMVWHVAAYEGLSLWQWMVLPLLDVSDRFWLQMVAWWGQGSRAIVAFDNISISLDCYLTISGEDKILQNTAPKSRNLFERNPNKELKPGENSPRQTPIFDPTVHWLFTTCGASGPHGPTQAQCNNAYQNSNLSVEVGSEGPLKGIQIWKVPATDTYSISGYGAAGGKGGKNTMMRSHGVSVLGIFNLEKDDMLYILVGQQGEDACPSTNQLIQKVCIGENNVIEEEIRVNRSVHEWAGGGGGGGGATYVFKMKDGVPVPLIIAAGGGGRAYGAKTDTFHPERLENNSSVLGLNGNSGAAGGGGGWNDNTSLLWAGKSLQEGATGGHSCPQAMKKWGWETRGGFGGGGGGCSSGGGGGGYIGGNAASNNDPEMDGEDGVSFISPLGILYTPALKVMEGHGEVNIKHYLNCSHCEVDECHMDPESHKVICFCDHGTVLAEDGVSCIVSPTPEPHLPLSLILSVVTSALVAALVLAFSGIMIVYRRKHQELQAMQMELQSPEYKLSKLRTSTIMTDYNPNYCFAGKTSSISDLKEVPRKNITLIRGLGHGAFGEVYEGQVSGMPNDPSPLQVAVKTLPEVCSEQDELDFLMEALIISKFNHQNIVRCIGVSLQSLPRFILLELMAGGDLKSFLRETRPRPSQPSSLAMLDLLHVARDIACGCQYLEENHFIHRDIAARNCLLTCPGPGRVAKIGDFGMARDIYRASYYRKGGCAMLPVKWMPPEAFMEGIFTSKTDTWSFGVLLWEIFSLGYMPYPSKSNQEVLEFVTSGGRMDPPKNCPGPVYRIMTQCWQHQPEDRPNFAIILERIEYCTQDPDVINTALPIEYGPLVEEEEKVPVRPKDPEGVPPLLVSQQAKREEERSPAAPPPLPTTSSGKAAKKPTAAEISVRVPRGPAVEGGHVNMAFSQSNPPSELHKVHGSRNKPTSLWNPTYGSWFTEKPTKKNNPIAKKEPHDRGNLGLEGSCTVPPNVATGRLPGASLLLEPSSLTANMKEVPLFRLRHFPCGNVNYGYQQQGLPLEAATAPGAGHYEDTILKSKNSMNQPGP

Insulin receptor, sequence (P06213 28-758 limits assumed): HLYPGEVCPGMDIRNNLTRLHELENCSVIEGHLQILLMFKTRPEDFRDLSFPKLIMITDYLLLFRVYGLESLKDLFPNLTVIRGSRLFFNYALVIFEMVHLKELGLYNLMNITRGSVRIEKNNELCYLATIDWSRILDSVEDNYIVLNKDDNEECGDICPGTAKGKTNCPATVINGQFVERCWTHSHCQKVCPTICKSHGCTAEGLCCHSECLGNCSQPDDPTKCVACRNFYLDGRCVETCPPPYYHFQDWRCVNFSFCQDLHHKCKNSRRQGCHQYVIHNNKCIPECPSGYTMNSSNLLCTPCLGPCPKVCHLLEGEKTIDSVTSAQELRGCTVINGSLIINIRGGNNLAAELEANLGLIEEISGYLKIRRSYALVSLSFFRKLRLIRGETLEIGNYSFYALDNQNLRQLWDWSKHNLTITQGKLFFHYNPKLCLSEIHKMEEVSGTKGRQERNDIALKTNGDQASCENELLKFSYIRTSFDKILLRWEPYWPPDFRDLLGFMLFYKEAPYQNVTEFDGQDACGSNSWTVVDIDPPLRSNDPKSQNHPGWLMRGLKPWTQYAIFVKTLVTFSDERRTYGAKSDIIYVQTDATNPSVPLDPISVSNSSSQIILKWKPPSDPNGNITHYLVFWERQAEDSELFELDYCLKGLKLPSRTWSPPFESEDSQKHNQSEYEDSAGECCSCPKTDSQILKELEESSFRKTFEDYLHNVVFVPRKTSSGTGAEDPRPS
Insulin receptor, sequence (P06213 763-1382 limits assumed): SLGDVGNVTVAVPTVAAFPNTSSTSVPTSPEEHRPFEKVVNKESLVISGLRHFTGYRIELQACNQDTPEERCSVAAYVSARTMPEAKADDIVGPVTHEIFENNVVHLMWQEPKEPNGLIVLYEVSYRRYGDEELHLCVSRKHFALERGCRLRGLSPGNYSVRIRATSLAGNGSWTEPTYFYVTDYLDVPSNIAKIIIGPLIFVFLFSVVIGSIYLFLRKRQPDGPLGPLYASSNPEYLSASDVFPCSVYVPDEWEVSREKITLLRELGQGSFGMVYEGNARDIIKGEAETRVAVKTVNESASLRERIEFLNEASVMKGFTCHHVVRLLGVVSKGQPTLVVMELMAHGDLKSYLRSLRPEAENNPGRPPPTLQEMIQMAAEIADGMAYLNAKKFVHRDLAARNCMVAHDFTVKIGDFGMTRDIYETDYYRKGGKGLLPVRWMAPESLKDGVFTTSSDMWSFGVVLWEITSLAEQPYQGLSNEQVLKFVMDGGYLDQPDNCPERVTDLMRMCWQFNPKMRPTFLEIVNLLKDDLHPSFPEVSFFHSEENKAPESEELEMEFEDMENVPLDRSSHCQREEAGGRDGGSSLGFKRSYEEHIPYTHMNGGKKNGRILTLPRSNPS

Compound	IC50 (Insulin receptor) [nM]	bioavailability [1] [%]	IC50 [2] [nM]
CCN1C(=O)CCCc2c1ccc(Nc1ncc(Cl)c(Nc3ccccc3S(=O)(=O)C(C)C)n1)c2OC	32	–	–
CCN1C(=O)CCCc2cc(Nc3ncc(Cl)c(Nc4ccccc4S(=O)(=O)N(C)C)n3)c(OC)cc21	37	–	–
CN1C(=O)CCCc2cc(Nc3ncc(Cl)c(N[C@@H]4CCCC[C@H]4C(N)=O)n3)ccc21 (racemic)	2010	–	–
CCN1C(=O)CCCc2c1ccc(Nc1ncc(Cl)c(Nc3ccccc3C(=O)NC)n1)c2OC	215	–	–
CCN1C(=O)CCCc2cc(Nc3ncc(Cl)c(Nc4ccccc4C(=O)NC)n3)c(OC)cc21	34	–	–
CN1C(=O)CCCc2cc(Nc3ncc(Cl)c(N[C@@H]4CCCC[C@@H]4C(N)=O)n3)ccc21 (racemic)	319	–	–
CN1C(=O)CCCc2cc(Nc3ncc(Cl)c(N[C@H]4[C@@H](C(N)=O)[C@@H]5C=C[C@H]4C5)n3)ccc21 (racemic)	91	13	–
CNC(=O)c1ccccc1Nc1nc(Nc2ccc3c(c2)CCCC(=O)N3C)ncc1Cl	–	9	–
CCN1C(=O)CCCc2cc(Nc3ncc(Cl)c(N[C@H]4[C@@H](C(N)=O)[C@@H]5C=C[C@H]4C5)n3)c(OC)cc21	89	–	–
CCN1C(=O)CCCc2c1ccc(Nc1ncc(Cl)c(Nc3ccccc3S(=O)(=O)N(C)C)n1)c2OC	71	–	–
CNS(=O)(=O)c1ccccc1Nc1nc(Nc2ccc3c(c2)CCCC(=O)N3C)ncc1Cl	10	11	–
CCN1C(=O)CCCc2cc(Nc3ncc(Cl)c(Nc4ccccc4S(=O)(=O)C(C)C)n3)c(OC)cc21	12	–	–
CNC(=O)c1cccc(Nc2nc(Nc3ccc4c(c3)CCCC(=O)N4C)ncc2Cl)c1	247	–	568
